# Results as given in US20110230659A1, “CYCLOBUTYL PURINE DERIVATIVE, ANGIOGENESIS PROMOTING AGENT, LUMEN FORMATION PROMOTING AGENT, NEUROCYTE GROWTH PROMOTING AGENT, AND DRUG” (NATIONAL UNIVERSITY CORPORATION KAGAWA UNIVERSITY, priority 2008, published 2011).
# How the values were obtained:
# [1] = system: ERK; assay: ERK activation (phosphorylation) immunoblot in HUVEC; assay type: cell-based, human
# [2] = system: human umbilical vein endothelial cells (HUVEC) and normal human dermal fibroblasts; assay: Measurement of lumen formation (angiogenesis kit, CD31 immunostaining, lumen area); assay type: cell-based
# Protocol: The measurement of lumen formation was carried out in the following manner using commercially available angiogenesis kits (Kurabo), each including human umbilical vein endothelial cells (HUVEC) and normal human dermal fibroblasts. First, sample solutions were prepared by dissolving 2-Cl—C.OXT-A in physiological saline so as to achieve predetermined concentrations (1, 10, 100, 500 μmol/l, 1, 5, 10, 50 mmol/l). Then, the sample solutions containing 2-Cl—C.OXT-A at the predetermined concentrations respectively were added to media provided in the kits so that their concentrations became 10 v/v %. Thus, lumen formation media were prepared. The final concentrations of 2-Cl—C.OXT-A in the lumen formation media were 0.1, 1, 10, 50, 100, 500 μmol/l, 1 and 5 mmol/1.
# Using each of the lumen formation media, the human umbilical vein endothelial cells (HUVEC) and the normal human dermal fibroblasts were cultured for 10 days. After the culture, the human umbilical vein endothelial cells (HUVEC) were immunostained using a lumen staining kit (for CD31 staining, Kurabo). Then, using NIH Image (image processing and analysis software), the area of a portion stained by the immunostaining (lumen area) was measured. As a control, a medium provided in the kit was used instead of the lumen formation medium to carry out the culture, and the cells were immunostained and the lumen area was measured in the same manner as in the above. Then, using the following equation (II), the relative value of lumen area in the culture using each of the lumen formation media containing 2-Cl—C.OXT-A at the predetermined concentrations was calculated.
# In the present example, the relative value of lumen area was calculated in the same manner as in the lumen formation measurement in Example 1, except that the measurement was carried out with respect to four groups respectively using media Nos. 5 to 8 prepared by adding 2-Cl—C.OXT-A and PD98059 to media provided in the above-described angiogenesis kits (Kurabo) so that their concentrations became as shown in Table 2 below. In the group using the medium No. 7, the culture was conducted using the medium No. 7 from the first to third days of the culture and the medium No. 5 from the fourth to tenth days of the culture, and in the group using the medium No. 8, the culture was conducted using the medium No. 8 from the first to third days of the culture and the medium No. 6 from the fourth to tenth days of the culture.
# In the present example, the relative value of lumen area was calculated in the same manner as in the lumen formation measurement in Example 1, except that the measurement was carried out with respect to six groups respectively using media Nos. 15 to 20 prepared by adding 2-Cl—C.OXT-A, VEGF (positive control), and SU5416 to media provided in the above-described angiogenesis kit (Kurabo) so that their concentrations became as shown in Table 4 below. In the group using the medium No. 16, the culture was conducted using the medium No. 16 from the first to third days of the culture and the medium No. 15 from the fourth to tenth days of the culture; in the group using the medium No. 18, the culture was conducted using the medium No. 18 from the first to third days of the culture and the medium No. 17 from the fourth to tenth days of the culture; and in the group using the medium No. 20, the culture was conducted using the medium No. 20 from the first to third days of the culture and the medium No. 19 from the fourth to tenth days of the culture.
# [3] = system: rat adrenal medulla-derived cell line PC12; assay: Differentiation of PC12 cells, AChE activity (Ellman's method); assay type: cell-based; details: NGF (positive control), sixth day of culture
# Protocol: (§1) Three samples were prepared by adding additives shown in Table 5 below to PBS so as to achieve predetermined concentrations. Also, an evaluation medium was prepared by adding each sample or PBS to DMEM (no serum) so that its concentration became 10 v/v %. Furthermore, as a control medium, a medium containing only DMEM (no serum) was prepared. The PC12 cells were suspended at a density of 5×10^4 cells/ml in DMEM to which 5 v/v % cow serum and 10 v/v % horse serum had been added. Thus, a cell suspension was prepared. 3 ml of the cell suspension was inoculated into a 6 petri dish. […] On the sixth day of the culture, the cells were photographed under a microscope, and the AChE activity was measured according to the Ellman's method (Ellman, G. L., et al., Biochem. Pharmacol., 7, pp. 88-95, (1961)). Specifically, the AChE activity was measured in the following manner. […] The sample solution, 75 μl of 10 mmol/l DTNB, and 3.0 ml of 0.1 mol/l phosphate buffer solution (pH 8.0) were added to a […] for absorbance measurement, and finally, 50 μl of 100 mmol/l acetylthiocholine was added to cause a reaction. The absorbance of the reaction solution at 412 nm was measured for 5 minutes from immediately after the addition of the ace tylthiocholine. From the thus-measured absorbances, the amount of increase in absorbance (C) per minute was determined. […]
# [4] = system: rat adrenal medulla-derived cell line PC12; assay: Differentiation of PC12 cells, morphological change (micrographs); assay type: cell-based; details: medium containing NGF (positive control); sixth day of culture
# Protocol: In the present example, using rat adrenal medulla-derived cell line PC12, which is neurocyte model cells, obtained from the RIKEN BioResource Center, the effect of 2-Cl—C.OXT-A of Example 1 on the differentiation of PC12 cells was examined.
# as §1, with “prepared.” for “prepared. The PC12 cells were suspended at a density of 5×10^4 cells/ml in DMEM to which 5 v/v % cow serum and 10 v/v % horse serum had been added. Thus, a cell suspension was prepared. 3 ml of the cell suspension was inoculated into a 6 petri dish.”
# [5] = system: Human umbilical vein endothelial cells (HUVEC); assay: Measurement of cell proliferation (Cell Counting Kit-8); assay type: cell-based; details: examined in the same manner as in Example 1
# Protocol: Sample solutions were prepared by dissolving 2-Cl—C.OXT-A in physiological saline so as to achieve predetermined concentrations (0.5, 1, 5, 10, 50, 100 mmol/l). Then, the sample solutions containing 2-Cl—C.OXT-A at the predetermined concentrations respectively were added to HuMedia-EB2 media (Kurabo) to which 2 v/v % inactivated fetal bovine serum (FBS) had been added so that their concentrations became 10 v/v %. Thus, cell proliferation media were prepared. The final concentrations of 2-Cl—C.OXT-A in the cell proliferation media were 50, 100, 500 μmol/l, 1, 5, and 10 mmol/1.
# Human umbilical vein endothelial cells (HUVEC) suspended in a HuMedia-EG2 medium (Kurabo) were inoculated into each of gelatin-coated wells of a 96-well plate at a density of 3×10^3 cells per well, and cultured for 24 hours. 24 hours after the start of the culture, the medium was removed, and 100 μl of the cell proliferation medium was added to each well. The cells were cultured for another 48 hours. After the completion of the culture, a color reaction was caused using a Cell Counting Kit-8 (Dojindo Laboratories). 2 hours after the start of the reaction, the absorbance at 450 nm was measured using a microplate reader. As a control, a HuMedia-EB2 medium (Kurabo) to which 2 v/v % inactivated fetal bovine serum (FBS) had been added was used instead of the cell proliferation medium to carry out the culture, and a color reaction was caused and the absorbance was measured in the same manner as in the above. Then, using the following equation (I), the relative absorbance in the culture using each of the cell proliferation media containing 2-Cl—C.OXT-A at the predetermined concentrations was calculated.
# [6] = system: Human umbilical vein endothelial cells (HUVEC); assay: Measurement of cell migration (CytoSelect 24-well Cell Migration Assay); assay type: cell-based; details: examined in the same manner as in Example 1
# Protocol: Measurement of cell migration was carried out in the following manner using CytoSelect 24-well Cell Migration Assay (CBA-100, Cell Biolabs) kits. First, sample solutions were prepared by dissolving 2-Cl—C.OXT-A in physiological saline so as to achieve predetermined concentrations (0.1, 0.5, 1 mmol/l). Then, the sample solutions containing 2-Cl—C.OXT-A at the predetermined concentrations respectively were added to HuMedia-EB2 media (Kurabo) to which 2 v/v % inactivated fetal bovine serum (FBS) had been added so that their concentrations became 10 v/v %. Thus, cell migration media were prepared. The final concentrations of 2-Cl—C.OXT-A in the cell migration media were 10, 50, and 100 μmol/l.
# Human umbilical vein endothelial cells (HUVEC) were suspended in a HuMedia-EB2 medium (Kurabo) to which 2 v/v % inactivated fetal bovine serum (FBS) had been added at a density of 0.5×10^6 cells/ml. Thus, a cell suspension was prepared. 300 μl of the cell suspension was added to an upper compartment (i.e., in an insert) of a polycarbonate membrane plate provided in the kit, and 500 μl of the cell migration medium was added to a lower compartment (i.e., in a well) of the plate. Then, the cells were cultured at 37° C. for 24 hours. After the completion of the culture, the membrane on the inner bottom face of the insert was wiped out with a cotton swab to remove the cells on the membrane. Then, cells having migrated to the rear face of the membrane (the membrane on the outer bottom face of the insert) were stained using a staining solution provided in the kit, and then photographed from below the insert. After the photographing, the dye was extracted with an extracting solution provided in the kit, and the absorbance at 560 nm was measured using a microplate reader. As a control, a HuMedia-EB2 medium (Kurabo) to which 2 v/v % inactivated fetal bovine serum (FBS) had been added was used instead of the cell migration medium to carry out the culture, and the cells were stained and the absorbance was measured in the same manner as in the above. Then, using the above equation (I), the relative absorbance in the culture using each of the cell migration media containing 2-Cl—C.OXT-A at the predetermined concentrations was calculated.
compound,measurement,setting,value
"Cc1cc(C)c(/C=C2\C(=O)Nc3ccccc32)[nH]1 [SU5416, reference compound]",increase in pERK,"[1]; Example 8, medium No. 10: only SU5416 100 nmol/l",not observed
same,ERK activation by 2-Cl—C.OXT-A in the presence of SU5416,"[1]; Example 8, medium No. 12: 2-Cl—C.OXT-A 100 μmol/l + SU5416 100 nmol/l",not inhibited
same,increase in pERK by VEGF in the presence of SU5416,"[1]; Example 8, medium No. 14: VEGF 10 ng/ml + SU5416 100 nmol/l",suppressed
same,lumen formation,"[2]; Example 9, medium No. 16: only SU5416 2.5 μmol/l, versus medium No. 15 (control)",decreased
same,lumen formation promotion by 2-Cl—C.OXT-A in the presence of SU5416,"[2]; Example 9, medium No. 18: 2-Cl—C.OXT-A 10 μmol/l + SU5416 2.5 μmol/l, lumen area increased, rate lower than medium No. 17",not inhibited
same,lumen area,"[2]; Example 9, medium No. 20: VEGF 10 ng/ml + SU5416 2.5 μmol/l",decreased
"NGF: nerve growth factor, positive control",AChE enzyme activity (relative value),[3],increased
same,morphological change of PC12 cells (axon extension),[4],cells from which linear axons extend were observed
"CSc1nc(N)c2ncn(C3CC(CO)C3CO)c2n1 (stereo not drawn) [2-SMe—C.OXT-A, 6-amino-2-thiomethoxy-9-[trans-trans-2,3-bis (hydroxymethyl)cyclobutyl]purine]",cell proliferation promoting-activity for vascular endothelial cells,[5],exhibited
same,cell migration promoting-activity for vascular endothelial cells,[6],exhibited
same,melting point,,209.4 to 211 °C
same,lumen formation promoting-activity for vascular endothelial cells,[2]; examined in the same manner as in Example 1,exhibited
VEGF,pERK,"[1]; Example 8, medium No. 13: VEGF 10 ng/ml",increased
same,lumen area,"[2]; Example 9, medium No. 19: VEGF 10 ng/ml",increased
